Data on one molecule can be found in PMC10094171, “Development of Novel Pt(IV)-Carbohydrate Derivatives as Targeted Anticancer Agents against Osteosarcoma” (International Journal of Molecular Sciences, 2023).

The subject of assay [1] is MG63 cells on bone-mimetic scaffold. Description: 3D scaffold-based osteosarcoma model (3D OS model), MTT cell viability. Set-up: species or system Human. The settings on record: 15 µM, MG63 3D OS model. The protocol:
(§1) The drugs were reconstituted in dimethyl sulfoxide (DMSO) at 1 mg/mL concentration, before being diluted in culture media at the required concentration. A 2D in vitro screening of all the drugs was performed at 72 h in a wide concentration range (0.5; 1.5, 5, 15, 30, 60 and 100 µM) on the three different cell lines in terms of cell viability, and the IC50 was calculated. The cell morphology in the presence of the complexes was evaluated at 15 and 30 µM concentrations, for MG63 and SAOS-2 and hFOBs cells, respectively, according to the IC50 at 72 h. […] For the models, a composite hydroxyapatite-based scaffold (MgHA/Coll), as a bone-like matrix, was used in combination with MG63 cells.
Synthesis of bone-mimetic scaffolds. The Mg-doped hydroxyapatite collagen composite scaffolds were designed and synthesised at ISSMC of CNR of Italy. In brief, 150 g of collagen gel (1 wt%, Opocrin SpA, MO, Italy) was diluted into a phosphoric acid solution (2.4 g in 500 mL; H3PO4, 85 wt.%, Sigma-Aldrich) at room temperature to obtain an acidic aqueous homogenous suspension. […]
MTT cell viability assay. A quantitative analysis of cell viability was carried out by using MTT assay, following the manufacturer’s instructions. […]

For another assay, the system named is SAOS-2 cells. Briefly: 2D MTT cell viability assay, SAOS-2 osteosarcoma cells. The settings on record: SAOS-2, 2D, 72 h. The format is cell-based, Human. The protocol: as §1
(§2) Cell culture. […] The cell number and viability were determined using the trypan blue dye exclusion test, and all cell handling procedures were performed under a laminar flow hood in sterility conditions.
(§3) MTT cell viability assay. A quantitative analysis of cell viability was carried out by using MTT assay, following the manufacturer’s instructions. […] After 15 min of incubation under slight stirring conditions, the absorbance of formazan was read at 570 nm by using a Multiskan FC Microplate Photometer (Thermo Fisher Scientific, Waltham, MA, USA). The values of absorbance are directly proportional to the number of metabolic active cells in each well. […]
In general terms: Tetrazolium assays rely on reduction of a dye to a coloured formazan, in cell work by metabolically active cells.

For a further assay, the system named is hFOBs cells. Briefly: 2D MTT cell viability assay, non-cancerous human foetal osteoblasts. The assay is classed as cell-based. The settings on record: hFOBs (healthy cells), 72 h. The protocol:
The drugs were reconstituted in dimethyl sulfoxide (DMSO) at 1 mg/mL concentration, before being diluted in culture media at the required concentration. A 2D in vitro screening of all the drugs was performed at 72 h in a wide concentration range (0.5; 1.5, 5, 15, 30, 60 and 100 µM) on the three different cell lines in terms of cell viability, and the IC50 was calculated. […] For the models, a composite hydroxyapatite-based scaffold (MgHA/Coll), as a bone-like matrix, was used in combination with MG63 cells.
as §2, §3
Statistical Analysis. […] The MTT results were further analysed using one-way analysis of variance (one-way ANOVA) and Dunnett’s multiple comparisons test. […]

The subject of the next assay is MG63 cells. Briefly: 2D MTT cell viability assay, MG63 osteosarcoma cells. The format is cell-based, Human. As for the experimental part:
as §1, §2, §3

Take `N.N.[Cl][Pt][Cl]` [Cisplatin, cis-[(NH3)2PtCl2], reference compound]: in assay [1], the “effect on cell viability in 3D OS model” value was “did not compromise the cell viability”. Further, the IC50 stood at 13.7 µM with SAOS-2 cells; 4.11 µM with hFOBs cells; 4.1 µM with hFOBs cells (listed as cisplatin); 12.2 µM with MG63 cells (MG63, 2D, MTT, 72 h). Besides, the “effect on viable cells in 2D standard culture” value in the assay on MG63 cells (15 µM, 2D standard culture, p-value ≤ 0.0001) is “significantly reduced the viable cells”.

A word on the IC50: it is the concentration that inhibits the measured activity by half.
